Measured values as given in US20240391940A1, “FUSED RING-CONTAINING COMPOUND, APPLICATION THEREOF, AND COMPOSITION CONTAINING SAME” (GenEros Biopharma Ltd., priority 2020, published 2024).

Test system: collagen-induced arthritis (CIA) mouse model
Experiment: Mouse CIA model, repeated for dose exploration (10, 30, 50 mg/kg)
Details: for Significance of clinical score vs. Vehicle group (Two-way ANOVA): CIA mice, GEN1-284s 50 mpk
Excerpt: Testing was repeated for dose exploration
The above method was used.

O=C(Cc1ccc2ncccc2c1)N1CCC(n2c(=O)n(COP(=O)([O-])[O-])c3cccc(C(F)(F)F)c32)CC1.[Na+].[Na+] [GEN1-284 salt, (2-Oxo-3-(1-(2-(quinolin-6-yl)acetyl)piperidin-4-yl)-4-(trifluoromethyl)-2,3-dihydro-1H-benzo[d]imidazol-1-yl)methyl disodium phosphate]
Significance of clinical score vs. Vehicle group (Two-way ANOVA) (Day 35): * (*P < 0.05)
Significance of clinical score vs. Vehicle group (Two-way ANOVA) (Day 38): ** (**P < 0.01)
Significance of clinical score vs. Vehicle group (Two-way ANOVA) (Day 40): ** (**P < 0.01)
Significance of clinical score vs. Vehicle group (Two-way ANOVA) (Day 42): ** (**P < 0.01)
Changes in body weight, Mean ± SEM (G3 GEN1-284s 10 mg/kg, Day 21): 20.64 ± 0.17
Clinical scores, Mean ± SEM (G3 GEN1-284s 10 mg/kg, Day 21): 0.0 ± 0.00
Changes in body weight, Mean ± SEM (G3 GEN1-284s 10 mg/kg, Day 24): 20.40 ± 0.28
Clinical scores, Mean ± SEM (G3 GEN1-284s 10 mg/kg, Day 24): 0.0 ± 0.00
Changes in body weight, Mean ± SEM (G3 GEN1-284s 10 mg/kg, Day 26): 20.19 ± 0.41
Clinical scores, Mean ± SEM (G3 GEN1-284s 10 mg/kg, Day 26): 0.3 ± 0.16
Changes in body weight, Mean ± SEM (G3 GEN1-284s 10 mg/kg, Day 28): 19.34 ± 0.52
Clinical scores, Mean ± SEM (G3 GEN1-284s 10 mg/kg, Day 28): 0.6 ± 0.18
Changes in body weight, Mean ± SEM (G3 GEN1-284s 10 mg/kg, Day 31): 18.89 ± 0.44
Clinical scores, Mean ± SEM (G3 GEN1-284s 10 mg/kg, Day 31): 2.5 ± 0.57
Changes in body weight, Mean ± SEM (G3 GEN1-284s 10 mg/kg, Day 33): 18.65 ± 0.48
Clinical scores, Mean ± SEM (G3 GEN1-284s 10 mg/kg, Day 33): 4.1 ± 0.99
Changes in body weight, Mean ± SEM (G3 GEN1-284s 10 mg/kg, Day 35): 19.04 ± 0.47
Clinical scores, Mean ± SEM (G3 GEN1-284s 10 mg/kg, Day 35): 5.6 ± 1.29
Changes in body weight, Mean ± SEM (G3 GEN1-284s 10 mg/kg, Day 38): 19.54 ± 0.38
Clinical scores, Mean ± SEM (G3 GEN1-284s 10 mg/kg, Day 38): 6.9 ± 1.55
Changes in body weight, Mean ± SEM (G3 GEN1-284s 10 mg/kg, Day 40): 19.85 ± 0.28
Clinical scores, Mean ± SEM (G3 GEN1-284s 10 mg/kg, Day 40): 7.5 ± 1.69
Changes in body weight, Mean ± SEM (G3 GEN1-284s 10 mg/kg, Day 42): 19.90 ± 0.31
Clinical scores, Mean ± SEM (G3 GEN1-284s 10 mg/kg, Day 42): 7.9 ± 1.79
Clinical scores: significance vs. solvent control group, two-way ANOVA (G3 GEN1-284s 10 mg/kg, Day 42): * (* p <0.05)
Changes in body weight, Mean ± SEM (G4 GEN1-284s 30 mg/kg, Day 21): 20.25 ± 0.34
Clinical scores, Mean ± SEM (G4 GEN1-284s 30 mg/kg, Day 21): 0.0 ± 0.00
Changes in body weight, Mean ± SEM (G4 GEN1-284s 30 mg/kg, Day 24): 19.74 ± 0.33
Clinical scores, Mean ± SEM (G4 GEN1-284s 30 mg/kg, Day 24): 0.0 ± 0.00
Changes in body weight, Mean ± SEM (G4 GEN1-284s 30 mg/kg, Day 26): 19.79 ± 0.34
Clinical scores, Mean ± SEM (G4 GEN1-284s 30 mg/kg, Day 26): 0.3 ± 0.16
Changes in body weight, Mean ± SEM (G4 GEN1-284s 30 mg/kg, Day 28): 19.48 ± 0.54
Clinical scores, Mean ± SEM (G4 GEN1-284s 30 mg/kg, Day 28): 0.6 ± 0.18
Changes in body weight, Mean ± SEM (G4 GEN1-284s 30 mg/kg, Day 31): 19.20 ± 0.56
Clinical scores, Mean ± SEM (G4 GEN1-284s 30 mg/kg, Day 31): 2.1 ± 0.69
Changes in body weight, Mean ± SEM (G4 GEN1-284s 30 mg/kg, Day 33): 19.50 ± 0.61
Clinical scores, Mean ± SEM (G4 GEN1-284s 30 mg/kg, Day 33): 3.6 ± 1.13
Changes in body weight, Mean ± SEM (G4 GEN1-284s 30 mg/kg, Day 35): 19.68 ± 0.61
Clinical scores, Mean ± SEM (G4 GEN1-284s 30 mg/kg, Day 35): 5.1 ± 1.25
Changes in body weight, Mean ± SEM (G4 GEN1-284s 30 mg/kg, Day 38): 19.46 ± 0.56
Clinical scores, Mean ± SEM (G4 GEN1-284s 30 mg/kg, Day 38): 6.0 ± 1.40
Clinical scores: significance vs. solvent control group, two-way ANOVA (G4 GEN1-284s 30 mg/kg, Day 38): ** (** p < 0.01)
Changes in body weight, Mean ± SEM (G4 GEN1-284s 30 mg/kg, Day 40): 20.06 ± 0.53
Clinical scores, Mean ± SEM (G4 GEN1-284s 30 mg/kg, Day 40): 6.9 ± 1.53
Clinical scores: significance vs. solvent control group, two-way ANOVA (G4 GEN1-284s 30 mg/kg, Day 40): * (* p <0.05)
Changes in body weight, Mean ± SEM (G4 GEN1-284s 30 mg/kg, Day 42): 19.78 ± 0.44
Clinical scores, Mean ± SEM (G4 GEN1-284s 30 mg/kg, Day 42): 8.1 ± 1.26
Clinical scores: significance vs. solvent control group, two-way ANOVA (G4 GEN1-284s 30 mg/kg, Day 42): * (* p <0.05)
Changes in body weight, Mean ± SEM (G5 GEN1-284s 50 mg/kg, Day 21): 20.44 ± 0.30
Clinical scores, Mean ± SEM (G5 GEN1-284s 50 mg/kg, Day 21): 0.0 ± 0.00
Changes in body weight, Mean ± SEM (G5 GEN1-284s 50 mg/kg, Day 24): 19.66 ± 0.23
Clinical scores, Mean ± SEM (G5 GEN1-284s 50 mg/kg, Day 24): 0.0 ± 0.00
Changes in body weight, Mean ± SEM (G5 GEN1-284s 50 mg/kg, Day 26): 19.70 ± 0.26
Clinical scores, Mean ± SEM (G5 GEN1-284s 50 mg/kg, Day 26): 0.4 ± 0.18
Changes in body weight, Mean ± SEM (G5 GEN1-284s 50 mg/kg, Day 28): 19.60 ± 0.43
Clinical scores, Mean ± SEM (G5 GEN1-284s 50 mg/kg, Day 28): 0.6 ± 0.18
Changes in body weight, Mean ± SEM (G5 GEN1-284s 50 mg/kg, Day 31): 18.88 ± 0.52
Clinical scores, Mean ± SEM (G5 GEN1-284s 50 mg/kg, Day 31): 1.9 ± 0.67
Changes in body weight, Mean ± SEM (G5 GEN1-284s 50 mg/kg, Day 33): 18.91 ± 0.59
Clinical scores, Mean ± SEM (G5 GEN1-284s 50 mg/kg, Day 33): 3.4 ± 1.15
Changes in body weight, Mean ± SEM (G5 GEN1-284s 50 mg/kg, Day 35): 19.09 ± 0.53
Clinical scores, Mean ± SEM (G5 GEN1-284s 50 mg/kg, Day 35): 4.8 ± 1.36
Clinical scores: significance vs. solvent control group, two-way ANOVA (G5 GEN1-284s 50 mg/kg, Day 35): * (* p <0.05)
Changes in body weight, Mean ± SEM (G5 GEN1-284s 50 mg/kg, Day 38): 19.10 ± 0.52
Clinical scores, Mean ± SEM (G5 GEN1-284s 50 mg/kg, Day 38): 5.9 ± 1.54
Clinical scores: significance vs. solvent control group, two-way ANOVA (G5 GEN1-284s 50 mg/kg, Day 38): ** (** p < 0.01)
Changes in body weight, Mean ± SEM (G5 GEN1-284s 50 mg/kg, Day 40): 19.31 ± 0.43
Clinical scores, Mean ± SEM (G5 GEN1-284s 50 mg/kg, Day 40): 6.6 ± 1.60
Clinical scores: significance vs. solvent control group, two-way ANOVA (G5 GEN1-284s 50 mg/kg, Day 40): ** (** p < 0.01)
Changes in body weight, Mean ± SEM (G5 GEN1-284s 50 mg/kg, Day 42): 19.39 ± 0.39
Clinical scores, Mean ± SEM (G5 GEN1-284s 50 mg/kg, Day 42): 6.9 ± 1.55
Clinical scores: significance vs. solvent control group, two-way ANOVA (G5 GEN1-284s 50 mg/kg, Day 42): ** (** p < 0.01)
